US9840510B1, “Pyrazolo[1,5-a]pyrimidinyl carboxamide compounds and their use in the treatment of medical disorders” (Lysosomal Therapeutics Inc., priority 2016, dated 2017)
≈ marks a conversion by molar mass, not a printed value.

assay: Compound solubility in water; type: physicochemical

Structure (SMILES) | solubility [µg/mL]
Cc1cc(-n2ccc(Cl)n2)nc2c(C(=O)NC(C3CC3)C(F)(F)F)cnn12 (stereo not shown) [III-107] | 0.1 (≈ 0.251 µM)
Cc1cc(-c2ccc(F)cc2)n2nc(Cl)c(C(=O)N[C@@H](C)C3CC3)c2n1 [III-33] | 0.5 (≈ 1.34 µM)
CCCO[C@H]1CC[C@H](NC(=O)c2cnn3c(C)cc(-c4cccnc4)nc23)CC1 [III-40] | 20 (≈ 50.8 µM)
Cc1cc(-c2ncccc2F)nc2c(C(=O)NC(C3CC3)C(F)(F)F)cnn12 (stereo not shown) [III-203] | 0.07 (≈ 0.178 µM)
COc1cc(-c2cc(C)n3ncc(C(=O)N[C@@H](C)C4CC4)c3n2)ccc1F [III-145] | 0.2 (≈ 0.543 µM)
CCc1cc(N2CCN(C(C)C)C2=O)nc2c(C(=O)NC(C)C(F)(F)F)cnn12 (stereo not shown) [III-226] | 5.9 (≈ 14.3 µM)
Cc1cc(-c2cccc(F)c2)nc2c(C(=O)NC(C3CC3)C(F)(F)F)cnn12 (stereo not shown) [III-111] | 0.07 (≈ 0.178 µM)
Cc1cc(C)n2ncc(C(=O)N[C@H]3CC[C@H](OC(C)(C)C)CC3)c2n1 [III-190] | 8.9 (≈ 25.8 µM)
Cc1cc(-c2cncc(Cl)c2)nc2c(C(=O)N[C@@H](C)C(F)(F)F)cnn12 [III-202] | 2.5 (≈ 6.51 µM)
Cc1cc(-c2ccc(F)cn2)nc2c(C(=O)NC(C3CC3)C(F)(F)F)cnn12 (stereo not shown) [III-204] | 0.1 (≈ 0.254 µM)
Cc1cc(-c2cscc2C#N)nc2c(C(=O)NC(C3CC3)C(F)(F)F)cnn12 (stereo not shown) [III-188] | 0.3 (≈ 0.74 µM)
Cc1cc(-c2cccnc2F)nc2c(C(=O)NC(C3CC3)C(F)(F)F)cnn12 (stereo not shown) [III-85] | 1 (≈ 2.54 µM)
Cc1cc(-c2cccc3c2OCO3)nc2c(C(=O)NC(C3CC3)C(F)(F)F)cnn12 (stereo not shown) [III-183] | 0.5 (≈ 1.2 µM)
CCc1cc(-c2ccccn2)nc2c(C(=O)NC(C)C(F)(F)F)cnn12 (stereo not shown) [III-52] | 2.4 (≈ 6.61 µM)
Cc1cc(-c2ccc3ocnc3c2)nc2c(C(=O)N[C@H](C)C(F)(F)F)cnn12 [III-167] | 0.7 (≈ 1.8 µM)
Cc1cc(N2CCC(F)(F)CC2)nc2c(C(=O)NC(C)C3CC3)cnn12 (stereo not shown) [III-60] | 4.4 (≈ 12.1 µM)
Cc1cc(-c2cccc(C(N)=O)n2)nc2c(C(=O)NC(C3CC3)C(F)(F)F)cnn12 (stereo not shown) [III-161] | 1 (≈ 2.39 µM)
COc1c(F)cccc1-c1cc(C)n2ncc(C(=O)N[C@@H](C)C3CC3)c2n1 [III-138] | 2.5 (≈ 6.79 µM)
Cc1cc(-c2ccns2)nc2c(C(=O)N[C@@H](C3CC3)C(F)(F)F)cnn12 [III-101] | 1.3 (≈ 3.41 µM)

Structure (SMILES) | solubility [µg/mL]
Cc1cc(-c2cncc(Cl)c2)nc2c(C(=O)N[C@H](C3CC3)C(F)(F)F)cnn12 [III-120] | 0.7 (≈ 1.71 µM)
Cc1cc(N2CCCCC2)n2ncc(C(=O)N[C@@H](C)C3CC3)c2n1 [III-30] | 4.7 (≈ 14.4 µM)
Cc1cc(-c2ccc(Cl)cn2)nc2c(C(=O)NC(C3CC3)C(F)(F)F)cnn12 (stereo not shown) [III-208] | 0.04 (≈ 0.0976 µM)
CCC(NC(=O)c1cnn2c(C)cc(-c3cccnc3)nc12)C(F)(F)F (stereo not shown) [III-42] | 15.1 (≈ 41.6 µM)
CCOc1cccc(-c2cc(C)n3ncc(C(=O)NC(C)C(F)(F)F)c3n2)c1 (stereo not shown) [III-76] | 0.2 (≈ 0.51 µM)
COc1cccc(-c2cc(C)n3ncc(C(=O)N[C@H](C)C(F)(F)F)c3n2)c1 [III-90] | 2 (≈ 5.29 µM)
Cc1cc(-c2cccc(OC3CC3)c2)nc2c(C(=O)NC(C)C(F)(F)F)cnn12 (stereo not shown) [III-77] | 0.3 (≈ 0.742 µM)
COc1ccc(F)c(-c2cc(C)n3ncc(C(=O)N[C@@H](C)C(F)(F)F)c3n2)c1 [III-98] | 0.3 (≈ 0.757 µM)
Cc1cc(-c2cccc(F)c2)nc2c(C(=O)N[C@@H](C)C3CC3)cnn12 [III-56] | 1.1 (≈ 3.25 µM)
Cc1cc(-c2ccns2)nc2c(C(=O)N[C@@H](C)C3CC3)cnn12 [III-197] | 6.5 (≈ 19.9 µM)
Cc1cc(-c2cccnc2F)nc2c(C(=O)N[C@@H](C3CC3)C(F)(F)F)cnn12 [III-115] | 1.9 (≈ 4.83 µM)
Cc1cc(-c2ccncc2)n2ncc(C(=O)N[C@@H](C)C3CC3)c2n1 [III-29] | 18.9 (≈ 58.8 µM)
CCc1cc(-c2ccccn2)n2ncc(C(=O)NC(C)C(F)(F)F)c2n1 (stereo not shown) [III-51] | 14.1 (≈ 38.8 µM)
Cc1cc(-c2nccs2)nc2c(C(=O)NC(C3CC3)C(F)(F)F)cnn12 (stereo not shown) [III-209] | 1.2 (≈ 3.15 µM)
Cc1cc(C)n2ncc(C(=O)N[C@@H](C3CC3)C(F)(F)F)c2n1 [III-11] | 13.4 (≈ 42.9 µM)
Cc1cc(-c2cccc3c2OCO3)nc2c(C(=O)N[C@@H](C)C3CC3)cnn12 [III-182] | 0.2 (≈ 0.549 µM)
Cc1cc(-c2ccc(F)cc2)nc2c(C(=O)N[C@@H](C)C3CC3)c(Cl)nn12 [III-32] | 0.1 (≈ 0.268 µM)
Cc1cc(C(F)(F)F)nc2c(C(=O)NC(C)(C)C3CC3)cnn12 [III-68] | 11.9 (≈ 36.5 µM)

Further lines, results first:

solubility [µg/mL] | Structure (SMILES)
2.4 (≈ 5.75 µM) | Cc1cc(-c2cncc(C(F)(F)F)c2)nc2c(C(=O)N[C@@H](C)C(F)(F)F)cnn12 [III-287]
0.8 (≈ 2.02 µM) | Cc1cc(-c2cccc(Cl)c2)nc2c(C(=O)NC(C)(C)C(F)(F)F)cnn12 [III-406]
8.3 (≈ 18.7 µM) | Cc1cc(-c2cnccc2C(F)(F)F)nc2c(C(=O)N[C@H](C3CC3)C(F)(F)F)cnn12 [III-353]
3.4 (≈ 8.35 µM) | Cc1cc(-c2cc(F)c3ocnc3c2)nc2c(C(=O)NC(C)C(F)(F)F)cnn12 (stereo not shown) [III-295]
1.7 (≈ 4.25 µM) | Cc1cc(-c2cncc(C#N)c2)nc2c(C(=O)N[C@H](C3CC3)C(F)(F)F)cnn12 [III-363]
0.3 (≈ 0.7 µM) | Cc1cc(-c2cccc3c2ncn3C)nc2c(C(=O)NC(C3CC3)C(F)(F)F)cnn12 (stereo not shown) [III-310]
3.2 (≈ 7.47 µM) | Cc1cc(-c2ccc3c(c2)ncn3C)nc2c(C(=O)NC(C3CC3)C(F)(F)F)cnn12 (stereo not shown) [III-303]
1 (≈ 2.72 µM) | Cc1nc(-c2cc(C)n3ncc(C(=O)N[C@H](C)C(F)(F)F)c3n2)oc1C [III-345]
0.4 (≈ 0.934 µM) | Cc1cc(-c2ccc3ncn(C)c3c2)nc2c(C(=O)NC(C3CC3)C(F)(F)F)cnn12 (stereo not shown) [III-304]
1.6 (≈ 4.22 µM) | Cc1coc(-c2cc(C)n3ncc(C(=O)N[C@H](C4CC4)C(F)(F)F)c3n2)n1 [III-255]
3 (≈ 7.27 µM) | Cc1cc(N2CCN(C(C)C)C2=O)nc2c(C(=O)NC(C)(C)C(F)(F)F)cnn12 [III-231]
21.4 (≈ 64.8 µM) | CO[C@H]1CC[C@H]([C@@H](C)NC(=O)c2cnn3c(C)cc(C)nc23)CC1 [III-403]
0.3 (≈ 0.724 µM) | Cc1cc(-c2ccc3nc[nH]c3c2)nc2c(C(=O)NC(C3CC3)C(F)(F)F)cnn12 (stereo not shown) [III-307]
19 (≈ 44.6 µM) | Cc1cc(N2CCCN(C(C)C)C2=O)nc2c(C(=O)NC(C)(C)C(F)(F)F)cnn12 [III-262]
0.04 (≈ 0.0884 µM) | Cc1cc(-c2cccc(-c3ncccn3)c2)nc2c(C(=O)NC(C3CC3)C(F)(F)F)cnn12 (stereo not shown) [III-417]
2.3 (≈ 5.91 µM) | Cc1ccncc1-c1cc(C)n2ncc(C(=O)NC(C3CC3)C(F)(F)F)c2n1 (stereo not shown) [III-274]
1.3 (≈ 3.06 µM) | Cc1cc(N2CC(C(C)C)OC2=O)nc2c(C(=O)NC(C3CC3)C(F)(F)F)cnn12 (stereo not shown) [III-316]
0.4 (≈ 1.05 µM) | Cc1cc(-c2ccc(F)o2)nc2c(C(=O)NC(C3CC3)C(F)(F)F)cnn12 (stereo not shown) [III-264]
1.5 (≈ 3.41 µM) | COCCOc1ccc(-c2cc(C)n3ncc(C(=O)NC(C)C(F)(F)F)c3n2)cc1F (stereo not shown) [III-298]
0.5 (≈ 1.32 µM) | Cc1coc(-c2cc(C)n3ncc(C(=O)N[C@@H](C4CC4)C(F)(F)F)c3n2)n1 [III-256]
21 (≈ 43.9 µM) | Cc1cc(N2CCCN(CC(F)(F)F)C2=O)nc2c(C(=O)NC(C3CC3)C(F)(F)F)cnn12 (stereo not shown) [III-260]
1.1 (≈ 2.75 µM) | Cc1cc(-c2cccnc2C#N)nc2c(C(=O)N[C@@H](C3CC3)C(F)(F)F)cnn12 [III-366]
12.7 (≈ 33.5 µM) | COc1ccncc1-c1cc(C)n2ncc(C(=O)NC(C)C(F)(F)F)c2n1 (stereo not shown) [III-269]
3.4 (≈ 8.96 µM) | COc1ccc(-c2cc(C)n3ncc(C(=O)N[C@@H](C)C(F)(F)F)c3n2)cn1 [III-273]
